Like-named read-outs stand apart in the source and are kept apart here.
Experiments:
[1] = system: mVP24-induced ARE activity; test: siRNA; type: cell-based; conditions: two p53 siRNAs vs scramble, mVP24/ARE HEK293T, 24 h treatment
[2] = system: endogenous Nrf2; type: cell-based
[3] = in vitro; conditions: human
[4] = target: constitutively expressed firefly luciferase (ce-FF) (Photinus pyralis, UniProt P08659); test: cell-based; type: cell-based
[5] = system: ARE activity induced by over-expression of Nrf2; test: cells; type: cell-based; conditions: for IC50: read-out: ARE/Nrf2 IC50
[6] = system: Flag-tagged mVP24; type: cell-based, Marburg virus
[7] = system: tBHQ-induced ARE activity; test: cells; type: cell-based; conditions: read-out: ARE/GFP/tBHQ IC50
[8] = system: p62-induced ARE activity; test: cells; type: cell-based; conditions: read-out: ARE/p62 IC50
[9] = system: NF-κB; test: cells; type: cell-based; conditions: read-out: NF-κB IC50
[10] = system: mVP24-induced ARE activity; test: ARE/mVP24 firefly luciferase reporter assay; type: cell-based; conditions: plateau around 1 μM of compound
[11] = system: HEK293T cells; conditions: 24 h, ATP content (CellTiter-Glo)

Chain of constitutively expressed firefly luciferase (ce-FF) (P08659 whole entry): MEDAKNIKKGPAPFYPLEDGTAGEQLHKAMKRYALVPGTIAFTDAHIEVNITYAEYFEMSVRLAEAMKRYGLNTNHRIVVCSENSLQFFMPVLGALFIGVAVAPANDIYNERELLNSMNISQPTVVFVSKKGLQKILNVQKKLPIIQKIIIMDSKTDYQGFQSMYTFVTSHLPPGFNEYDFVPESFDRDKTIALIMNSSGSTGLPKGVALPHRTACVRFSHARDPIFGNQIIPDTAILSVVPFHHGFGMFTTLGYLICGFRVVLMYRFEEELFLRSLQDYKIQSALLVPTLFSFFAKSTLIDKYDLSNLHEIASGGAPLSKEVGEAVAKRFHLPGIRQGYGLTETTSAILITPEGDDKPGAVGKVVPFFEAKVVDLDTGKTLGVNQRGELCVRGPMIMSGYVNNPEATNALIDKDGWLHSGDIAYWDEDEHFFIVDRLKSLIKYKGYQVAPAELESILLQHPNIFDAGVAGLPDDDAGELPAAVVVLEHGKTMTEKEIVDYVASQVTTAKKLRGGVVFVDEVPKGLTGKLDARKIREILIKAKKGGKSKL

O=C(N[C@@H]1CCCc2c1[nH]c1ccc(Cl)cc21)c1ccccn1 [GSK983]
effect of p53 knockdown on inhibition of mVP24-induced ARE activity [1]: did not result in a reversal of inhibition
Nrf2 expression relative to DMSO control [2]: decreased

COc1cc([C@@H]2c3cc4c(cc3[C@H](O)[C@H]3COC(=O)[C@H]23)OCO4)cc(OC)c1OC [Podophyllotoxin, podophyllotoxin]
CC50 at 24 h [3]: > 50 µM
IC50 [4]: > 50 µM
inhibition of ARE activity following over-expression of Nrf2 (in words) ([5]; ARE/Nrf2 assay): did not inhibit
IC50 ([5]; Homo sapiens, HEK-293T, 24 h): > 50 µM
mVP24 expression relative to DMSO control [6]: affected
IC50 ([7]; Homo sapiens, HEK-293T, 24 h): 0.026 µM
IC50 ([8]; Homo sapiens, HEK-293T, 24 h): 3.1 µM
IC50 ([9]; Homo sapiens, HEK-293T, 6 h): > 50 µM
plateau of inhibitory activity against mVP24-induced ARE activity [10]: approximately 80%
Nrf2 expression relative to DMSO control ([2]; ARE/mVP24 HEK293T cells, 1 and 5 μM, 24 h, western blot): affected

Nc1ncnc2c1c(I)cn2[C@@H]1O[C@H](CO)[C@@H](O)[C@H]1O [5-iodotubercidin]
IC50 ([4]; read-out: Ce-FF IC50): 15 µM
IC50 [5]: 1.2 µM
IC50 [7]: 0.2 µM
IC50 [8]: 0.058 µM
IC50 [9]: 6.5 µM
CC50 [11]: > 50 µM
